Experimental data taken from patent US20230398218A1, “RAS NEOANTIGENS AND USES THEREOF” (priority 2020, published 2023).
Like-named read-outs stand apart in the source and are kept apart here. No end group written: not given here.

Tests used:
[1] = molecular target: T1, HLA A01.01 (Homo sapiens, UniProt P04439, A114D/A174V/A182V/D101N/D185E/E176A/E190D/L180R/Q94H/R68K/S129P/T187R/V100A/V91M/W191G); experiment: MHC-I peptide binding affinity assay (displacement of radiolabeled reference peptide)
Description: (§1) 31:813 (1994). […] 149:1896 (1992)).

[2] = molecular target: T1, HLA A01.01; experiment: MHC-I peptide binding stability assay (pMHC-I dissociation half-life); conditions: HLA allele A01.01
Protocol: (§2) Briefly, synthetic genes encoding biotinylated MHC-I heavy and light chains are expressed in E. coli and purified from inclusion bodies using standard methods. The light chain (β2m) is radio-labeled with iodine (1251), and combined with the purified MHC-I heavy chain and peptide of interest at 18° C. to initiate pMHC-I complex formation. These reactions are carried out in streptavidin coated microplates to bind the biotinylated MHC-I heavy chains to the surface and allow measurement of radiolabeled light chain to monitor complex formation. Dissociation is initiated by addition of higher concentrations of unlabeled light-chain and incubation at 37° C. Stability is defined as the length of time in hours it takes for half of the complexes to dissociate, as measured by scintillation counts.

[3] = molecular target: T2, HLA A02.01 (Homo sapiens, UniProt P04439, D140Y/D185E/D98H/E176V/E277Q/G131W/G231S/I119V/I121R/I166T/I218V/L300P/L318F/N151K/N90K/P208A/P217A/Q86G/Q94H/R138H/R169H/T345S); experiment: MHC-I peptide binding affinity assay (displacement of radiolabeled reference peptide)
[4] = molecular target: HLA A24.02; experiment: as above; parameters: species or system human; conditions: Table 11, EGFR T790M peptides; HLA allele A24.02
Description: as §1

[5] = tested on: MHC protein encoded by HLA-C03:04 allele; experiment: Identification of MHC-bound epitope by mass spectrometry; type: cell-based, human; conditions: MHC encoded by HLA-C03:04 allele
Description: (§3) In some embodiments, antigenic peptides comprising an epitope may be identified by mass spectrometry to be bound to an MHC encoded by an HLA.
(§4) Provided herein are KRAS epitopes each of which specifically can bind to the MHC protein encoded by the alleles indicated in right hand column in the same row of Table 1, that have been identified to bind to the MHC protein by mass spectrometry, and that each epitope is presented to T cells by association with the MHC protein in the respective right hand column for each row in Table 1.
(§5) To assess whether antigens could be processed and presented from the larger polypeptide context, peptides eluted from HLA molecules isolated from cells expressing the genes of interest were analyzed by tandem mass spectrometry (MS/MS).

[6] = molecular target: T3, HLA A03.01 (Homo sapiens, UniProt P04439); experiment: HLA-peptide elution and targeted MS/MS (PRM) presentation assay; type: cell-based; parameters: expressed in transfected cells; SW620 cells (lentiviral transduction)
Protocol: as §5
For analysis of presentation of RAS neoantigens, cell lines were utilized that have RAS mutations naturally or were lentivirally transduced to express the mutated RAS gene. HLA molecules were either isolated based on the natural expression of the cell lines or the cell lines were lentivirally transduced or transiently transfected to express the HLA of interest. […] Greater than 50 million cells expressing peptides encoded by a mutant RAS peptide were cultured and peptides were eluted from HLA-peptide complexes using an acid wash. Eluted peptides were then analyzed by targeted MS/MS with parallel reaction monitoring (PRM). […] Endogenous peptide spectrum is shown in the top panel and the corresponding stable heavy-isotopically labeled spectrum is shown in the bottom panel.

[7] = molecular target: T3, HLA A03.01; experiment: MHC-I peptide binding affinity assay (displacement of radiolabeled reference peptide); parameters: made in house; host or cells: E. coli; conditions: Table 10, BTK C481S peptides; HLA allele A03.01
Description: as §1

[8] = molecular target: T3, HLA A03.01; experiment: MHC-I peptide binding stability assay (pMHC-I dissociation half-life); parameters: made in house; host or cells: E. coli; conditions: Table 10, BTK C481S peptides; HLA allele A03.01
Protocol: as §2

[9] = tested on: T2 or HLA-A0201 transfected C1Rs pulsed with peptide; experiment: IFNγ ELISpot assay; type: cell-based, human; conditions: number of donors responding out of 2; HLA-A02:01 peptides
Protocol: In some embodiments the immunogenicity is measured by measuring a protein or peptide expressed by the T cell, using ELISpot assay. Peptide-specific T cells are functionally enumerated using the ELISpot assay (BD Biosciences), which measures the release of IFNγ from T cells on a single cell basis. Target cells (T2 or HLA-A0201 transfected C1Rs) were pulsed with 10 μM peptide for one hour at 37 degrees C., and washed three times. 1×10^5 peptide-pulsed targets are co-cultured in the ELISPOT plate wells with varying concentrations of T cells (5×10^2 to 2×10^3) taken from the immunogenicity culture. Plates are developed according to the manufacturer's protocol, and analyzed on an ELISPOT reader (Cellular Technology Ltd.) with accompanying software. Spots corresponding to the number of IFN gamma-producing T cells are reported as the absolute number of spots per number of T cells plated. T cells expanded on modified peptides are tested not only for their ability to recognize targets pulsed with the modified peptide, but also for their ability to recognize targets pulsed with the parent peptide. Some exemplary data are shown below in Table 13.

[10] = molecular target: HLA B07.02 (Homo sapiens, UniProt P01889); experiment: MHC-I peptide binding affinity assay (displacement of radiolabeled reference peptide); conditions: Table 11, EGFR T790M peptides; HLA allele B07.02
Description: as §1

[11] = molecular target: T2, HLA A02.01; experiment: MHC-I peptide binding stability assay (pMHC-I dissociation half-life); conditions: HLA allele A02.01
Protocol: as §2

[12] = molecular target: HLA B08.01 (Homo sapiens, UniProt P01889, A93T/A95T/D138N/E176V/E187T/K202T/Q94N/R180D/S35A/V36M/Y33D/Y91F); conditions: read-out: Affinity
Description: As used herein, the term “affinity” refers to a measure of the strength of binding between two members of a binding pair, for example, an HLA-binding peptide and a class I or II HLA. K D is the dissociation constant and has units of molarity. The affinity constant is the inverse of the dissociation constant. An affinity constant is sometimes used as a generic term to describe this chemical entity. It is a direct measure of the energy of binding. Affinity may be determined experimentally, for example by surface plasmon resonance (SPR) using commercially available Biacore SPR units. […] Likewise, ln(IC50) refers to the natural log of the IC50. Koff refers to the off-rate constant, for example, for dissociation of an HLA-binding peptide and a class I or II HLA. […] Given the conditions in which the assays are run (i.e., limiting HLA protein and labeled reference peptide concentrations), these values approximate KD values. […] Alternatively, binding can be expressed relative to binding by a reference standard peptide. For example, can be based on its IC50, relative to the IC50 of a reference standard peptide.
In brief, MHCI complexes were prepared and bound to radiolabeled reference peptides. Peptides were incubated at varying concentrations with these complexes for 2 days, and the amount of remaining radiolabeled peptide bound to MHCI was measured using size exclusion gel-filtration.

[13] = tested on: MHC protein encoded by HLA-C03:03 allele; experiment: Identification of MHC-bound epitope by mass spectrometry; type: cell-based, human; conditions: MHC encoded by HLA-C03:03 allele
Description: as §3, §4, §5

[14] = molecular target: HLA B08.02; experiment: MHC-I peptide binding affinity assay (displacement of radiolabeled reference peptide); parameters: species or system human; conditions: Table 11, EGFR T790M peptides; HLA allele B08.02
Description: as §1

[15] = tested on: HLA A24.02; experiment: MHC-I peptide binding stability assay (pMHC-I dissociation half-life); parameters: species or system human; conditions: Table 11, EGFR T790M peptides; HLA allele A24.02
Protocol: as §2

[16] = Table 11, EGFR T790M peptides, HLA allele A02.01, read-out: Affinity
[17] = Table 10, BTK C481S peptides, HLA allele A01.01, read-out: Affinity

LTSTVQLIM
IC50 ([1]; Table 11, EGFR T790M peptides, HLA allele A01.01, read-out: Affinity): 2.89 µM | Stability (half-life (hr.)) ([2]; Table 11, EGFR T790M peptides): 6.222 min

CC[C@H](C)[C@H](NC(=O)[C@H](CC(C)C)NC(=O)[C@H](CCC(N)=O)NC(=O)[C@@H](N)C(C)C)C(=O)N[C@@H](CCSC)C(=O)N[C@@H](CCC(N)=O)C(=O)N[C@@H](CC(C)C)C(=O)N[C@@H](CCSC)C(=O)N1CCC[C@H]1C(=O)N[C@@H](Cc1ccccc1)C(=O)O
IC50 [3, 16]: 4.94 µM | IC50 [4]: 4.1 µM

GACGVGKSA
binding to MHC protein, identified by mass spectrometry [5]: specifically binds

VVVGAVGVGK
HLA-eluted peptide detected by mass spectrometry ([6]; 293T cells lentivirally transduced with RAS G12V mutation and HLA-A*03:01 gene): detected | HLA-eluted peptide detected by mass spectrometry ([6]; SW620 cells naturally expressing RAS G12V, lentivirally transduced with HLA-A*03:01 gene): detected

CC[C@H](C)[C@H](NC(=O)[C@H](CC(C)C)NC(=O)[C@H](CCC(N)=O)NC(=O)[C@@H](NC(=O)[C@@H](NC(=O)[C@H](CO)NC(=O)[C@@H](NC(=O)[C@H](CC(C)C)NC(=O)[C@@H](N)CS)[C@@H](C)O)[C@@H](C)O)C(C)C)C(=O)N[C@@H](CCSC)C(=O)O
IC50 [3]: 0.537 µM | IC50 [1]: 8.28 µM

CSCC[C@H](N)C(=O)N[C@@H](C)C(=O)N[C@@H](CC(N)=O)C(=O)NCC(=O)N[C@@H](CO)C(=O)N[C@@H](CC(C)C)C(=O)N[C@@H](CC(C)C)C(=O)N[C@@H](CC(N)=O)C(=O)N[C@@H](Cc1ccc(O)cc1)C(=O)O
IC50 [1, 17]: 0.439 µM | Stability (half-life (hr.)) ([2]; Table 10, BTK C481S peptides): 12.98 min | IC50 [7]: 0.0356 µM | Stability (half-life (hr.)) [8]: 14.3 min

FLGYLILGV
Immunogenicity (# donors/2) [9]: 1 # donors/2

CSCC[C@H](NC(=O)[C@H](CC(C)C)NC(=O)[C@H](CCC(N)=O)NC(=O)[C@@H](N)CCSC)C(=O)N1CCC[C@H]1C(=O)N[C@@H](Cc1ccccc1)C(=O)NCC(=O)N[C@@H](CS)C(=O)N[C@@H](CC(C)C)C(=O)O
IC50 [3, 16]: 0.116 µM | IC50 [10]: 1.59 µM | Stability (half-life (hr.)) ([11]; Table 11, EGFR T790M peptides): 22.1 min

RLIWLVKMV
Immunogenicity (# donors/2) [9]: 1 # donors/2

STVQLIMQL
IC50 [3]: 7.26 µM

CC[C@H](C)[C@H](NC(=O)[C@@H](N)CC(C)C)C(=O)N[C@@H](CCSC)C(=O)N[C@@H](CCC(N)=O)C(=O)N[C@@H](CC(C)C)C(=O)N[C@@H](CCSC)C(=O)N1CCC[C@H]1C(=O)N[C@@H](Cc1ccccc1)C(=O)NCC(=O)N[C@@H](CS)C(=O)O
IC50 [3, 16]: 0.132 µM | Stability (half-life (hr.)) ([11]; Table 11, EGFR T790M peptides): 22.88 min

CSCC[C@H](NC(=O)[C@H](CCC(=O)O)NC(=O)[C@H](CCCNC(=N)N)NC(=O)[C@H](CC(C)C)NC(=O)[C@H](Cc1ccc(O)cc1)NC(=O)[C@H](CC(N)=O)NC(=O)[C@H](CC(C)C)NC(=O)[C@H](CC(C)C)NC(=O)[C@@H](N)CO)C(=O)O
Stability (half-life (hr.)) ([11]; Table 10, BTK C481S peptides): 182.6 min | IC50 [12]: 0.96 µM

CC[C@H](C)[C@H](N)C(=O)N[C@@H](CCSC)C(=O)N[C@@H](CCC(N)=O)C(=O)N[C@@H](CC(C)C)C(=O)N[C@@H](CCSC)C(=O)N1CCC[C@H]1C(=O)N[C@@H](Cc1ccccc1)C(=O)NCC(=O)N[C@@H](CS)C(=O)N[C@@H](CC(C)C)C(=O)O
IC50 [3, 16]: 0.653 µM | IC50 [4]: 14.1 µM | Stability (half-life (hr.)) ([11]; Table 11, EGFR T790M peptides): 30.94 min

LLANDLMLI
Immunogenicity (# donors/2) [9]: 2 # donors/2

IMQLMPFGC
IC50 [3, 16]: 1.21 µM | Stability (half-life (hr.)) ([11]; Table 11, EGFR T790M peptides): 22.21 min

GAVGVGKSA
binding to MHC protein, identified by mass spectrometry [13]: specifically binds

CSCC[C@H](NC(=O)[C@H](CC(C)C)NC(=O)[C@H](CCC(N)=O)NC(=O)[C@@H](N)CCSC)C(=O)N1CCC[C@H]1C(=O)N[C@@H](Cc1ccccc1)C(=O)NCC(=O)N[C@@H](CS)C(=O)N[C@@H](CC(C)C)C(=O)N[C@@H](CC(C)C)C(=O)O
IC50 [3, 16]: 0.0163 µM | IC50 [4]: 18.9 µM | Stability (half-life (hr.)) ([11]; Table 11, EGFR T790M peptides): 22.87 min

CC[C@H](C)[C@H](NC(=O)[C@H](CC(C)C)NC(=O)[C@@H](N)CCC(N)=O)C(=O)N[C@@H](CCSC)C(=O)N[C@@H](CCC(N)=O)C(=O)N[C@@H](CC(C)C)C(=O)N[C@@H](CCSC)C(=O)N1CCC[C@H]1C(=O)N[C@@H](Cc1ccccc1)C(=O)O
IC50 [3, 16]: 0.193 µM | IC50 [4]: 2.03 µM | IC50 [14]: 5.59 µM | Stability (half-life (hr.)) ([11]; Table 11, EGFR T790M peptides): 20.44 min | Stability (half-life (hr.)) [15]: 22.12 min

QLIMQLMPFG
IC50 [3, 16]: 5.21 µM

FQNSYTIGL
Immunogenicity (# donors/2) [9]: 2 # donors/2

ILNDTGCHYV
Immunogenicity (# donors/2) [9]: 1 # donors/2

YMANGSLLNY
IC50 [1, 17]: 0.0132 µM | Stability (half-life (hr.)) ([2]; Table 10, BTK C481S peptides): 51.97 min | IC50 [7]: 0.0959 µM | Stability (half-life (hr.)) [8]: 16.75 min

FLTPKKLQCV
Immunogenicity (# donors/2) [9]: 1 # donors/2

FQYPEFSIEL
Immunogenicity (# donors/2) [9]: 1 # donors/2

LLANGRMPTV
Immunogenicity (# donors/2) [9]: 2 # donors/2

VLDCCISLL
Immunogenicity (# donors/2) [9]: 1 # donors/2

LIMQLMPFG
IC50 [3, 16]: 3.34 µM
